Data from patent US7141590B2, “Pharmaceutical uses and synthesis of nicotinanilide-N-oxides” (UCB SA, priority 2000, dated 2006).

Tests used:
[1] = molecular target: T1, IL-8 type β receptor (IL-8Rβ) (Homo sapiens, UniProt P25025); assay: [125I] IL-8 binding assay (WGA-SPA beads, IL-8Rβ membranes); settings: 20 uM compound; [125I] IL-8, IL-8Rβ membranes
T1 construct: purchased BioSignal, Montreal, Canada; host or cells: Sf9 cells
T1 sequence (P25025 1-360): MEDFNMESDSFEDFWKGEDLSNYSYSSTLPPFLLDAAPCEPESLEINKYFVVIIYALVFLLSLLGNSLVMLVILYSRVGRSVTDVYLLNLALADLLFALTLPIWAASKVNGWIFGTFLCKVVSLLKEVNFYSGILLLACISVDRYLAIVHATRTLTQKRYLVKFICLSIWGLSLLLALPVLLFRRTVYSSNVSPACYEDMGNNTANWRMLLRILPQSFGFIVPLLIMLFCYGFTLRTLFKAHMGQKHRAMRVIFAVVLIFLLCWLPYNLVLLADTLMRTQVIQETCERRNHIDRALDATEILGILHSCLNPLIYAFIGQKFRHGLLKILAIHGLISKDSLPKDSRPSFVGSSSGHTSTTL
Procedure: IL-8 (human recombinant) was obtained from NEN Life Science Products, Inc., Boston, Mass., with specific activity of 2200 Ci/mmol. Recombinant human IL-8 was obtained from R&D Systems, Minneapolis, Minn. IL-8 type β receptor membranes were prepared from […] co-expressed with Gαi3β1γ2 proteins by BioSignal™, Montreal, Canada. Wheat Germ Agglutinin Scintillation Proximity Assay Beads were obtained from Amersham Pharmacia Biotech, Piscataway, N.J. All assays were performed in a 96-well, solvent resistant, white PicoPlate obtained from Packard Instruments. […] The assay was initiated by the addition of WGA-SPA beads in 25 mM Hepes (pH 7.4) containing 2 mM CaCl2 and 1 mM MgCl2. After 4–6 hours of gentle agitation at room temperature, the plate was counted on the Packard TopCount liquid scintillation counter.

[2] = system: polymorphonuclear neutrophils (PMNs); assay: GRO-α driven chemotaxis assay with PMNs (ChemoTx plate); format: cell-based; settings: 20 μM compound; 50 nM GRO-α, human PMNs
Procedure: Peripheral blood from healthy human volunteers was collected into heparin, diluted in an equal volume of PBS, layered over Ficoll-Paque Plus (Pharmacia Biotech, Uppsala, Sweden), and spun at 400×g for 30 min. The PMN rich fraction was removed and residual erythrocytes were lysed with hypotonic saline. The polymorphonuclear neutrophils (PMNs) were washed once with assay buffer (Dulbecco's PBS containing divalent cations and 0.1% endotoxin-free BSA), and resuspended at 1E7 cells/mL in the same buffer. PMNs were loaded with 5 μM calcein AM (Molecular Probes, Eugene, Oreg.), washed twice and resuspended in assay buffer.
Growth Regulatory Oncogene a (GRO-α) driven chemotaxis assays were performed according to the following protocol. […] Test compounds were dissolved in DMSO (100%) at 20 mM and diluted in assay buffer to the desired concentrations; final DMSO concentration was 0.2%. Neutrophil migration proceeded for 40 min at 37° C. in a humidified incubator with 5% CO2. After removing nonmigrated cells from the top of the plate, migrated cells were quantified by reading fluorescence on a Wallac Victor.
The ratio of the positive to negative controls represents the chemotactic index of the cells. The results from this assay are reported in Tables 3–5, under the column headings IL-8 and GRO-α, and under the sub-column headings ChTx (for chemotaxis).

Row | Structure (SMILES) | IL-8 Binding @ 20 uM, % [1] | GRO-α ChTx @ 20 μM, % [2]
1 | O=C(Nc1cccc(Br)c1)c1ccc(Cl)[n+]([O-])c1 | * (“*” for % values of less than or equal to 40) | ** (“**” for % values greater than 40)
2 | CNc1ccc(C(=O)Nc2ccc(F)cc2)c[n+]1[O-] | ** (“**” for % values greater than 40) | ** (“**” for % values greater than 40)
3 | NC(=O)c1cccc(NC(=O)c2ccc(Cl)[n+]([O-])c2)c1 | * (“*” for % values of less than or equal to 40) | * (“*” for % values of less than or equal to 40)
4 | O=C(Nc1ccc(F)c(C(F)(F)F)c1)c1ccc(Cl)[n+]([O-])c1 | * (“*” for % values of less than or equal to 40) | ** (“**” for % values greater than 40)
5 | O=C(Nc1ccccc1F)c1ccc(Cl)[n+]([O-])c1 | * (“*” for % values of less than or equal to 40) | ** (“**” for % values greater than 40)
6 | CCOc1cccc(NC(=O)c2ccc(Cl)[n+]([O-])c2)c1 | * (“*” for % values of less than or equal to 40) | C*
7 | O=C(Nc1cccc(I)c1)c1ccc(Cl)[n+]([O-])c1 | * (“*” for % values of less than or equal to 40) | ** (“**” for % values greater than 40)
8 | O=C(Nc1ccc(F)c(F)c1)c1ccc(Cl)[n+]([O-])c1 [drawing 70] | * (“*” for % values of less than or equal to 40) | ** (“**” for % values greater than 40)
9 | Cc1cc(NC(=O)c2ccc(Cl)[n+]([O-])c2)ccc1Br | * (“*” for % values of less than or equal to 40) | ** (“**” for % values greater than 40)
10 | O=C(Nc1ccc(F)cc1)c1ccc(Nc2ccccc2)[n+]([O-])c1 | ** (“**” for % values greater than 40) | * (“*” for % values of less than or equal to 40)
11 | CCCS(=O)(=O)c1ccc(C(=O)Nc2ccc(F)cc2)c[n+]1[O-] [drawing 51] | ** (“**” for % values greater than 40) | ** (“**” for % values greater than 40)
12 | O=C(Nc1ccc(F)cc1)c1ccc(NCCO)[n+]([O-])c1 | * (“*” for % values of less than or equal to 40) | ** (“**” for % values greater than 40)
13 | O=C(Nc1ccc(F)cc1)c1ccc(Br)[n+]([O-])c1 [Br, 6-BROMO-N-(4-FLUORO-PHENYL)-1-OXY-NICOTINAMIDE] | – | ** (“**” for % values greater than 40)
14 | O=C(Nc1ccc(F)c(F)c1C(=O)O)c1ccc(Cl)[n+]([O-])c1 | – | ** (“**” for % values greater than 40)
15 | Cc1ccc(C(=O)Nc2ccc(F)cc2)c[n+]1[O-] | *(2) (“*” for % values of less than or equal to 40) | * (“*” for % values of less than or equal to 40)
16 | O=C(Nc1ccc(F)cc1)c1ccc(S(=O)(=O)c2ccccc2)[n+]([O-])c1 [drawing 47] | ** (“**” for % values greater than 40) | ** (“**” for % values greater than 40)
17 | O=C(Nc1ccc(F)cc1)c1ccc(N2CCCC2)[n+]([O-])c1 | * (“*” for % values of less than or equal to 40) | * (“*” for % values of less than or equal to 40)
18 | Cc1ccc(C(=O)Nc2ccc(F)cc2)c(Cl)[n+]1[O-] | – | * (“*” for % values of less than or equal to 40)
19 | COc1ccc(C(=O)O)cc1NC(=O)c1ccc(Cl)[n+]([O-])c1 | – | ** (“**” for % values greater than 40)
20 | O=C(Nc1ccc(F)cc1)c1ccc(Cl)[n+]([O-])c1Cl | – | ** (“**” for % values greater than 40)
21 | O=C(Nc1ccc(F)cc1)c1cc(Cl)c(Cl)[n+]([O-])c1 [drawing 126] | – | ** (“**” for % values greater than 40)
22 | CSc1ccccc1NC(=O)c1ccc(Cl)[n+]([O-])c1 | – | ** (“**” for % values greater than 40)
23 | COC(=O)c1ccc(NC(=O)c2ccc(Cl)[n+]([O-])c2)cc1 | – | ** (“**” for % values greater than 40)
